Data on 5 molecules can be found in patent EP0148283A1, “Novel penicillanic acid derivatives” (F. HOFFMANN-LA ROCHE & CO. Aktiengesellschaft, priority 1983, dated 1985).

Assay in all cases: In vitro antibacterial activity, MIC by broth dilution in 96-well trays
Common to all, as to format: cell-based

One assay deals with S. pneumoniae. The following applies: Streptococcus pneumoniae. As for the experimental part:
(§1) The in vitro antibacterial activity of the following compounds:
(§2) The diluted agents are dispensed in 100 µl amounts into the wells of a 96-well tray and used immediately or frozen at -10 to -70°C until needed. Using an automated inoculator, 1.5 µl of a 10^-2 dilution of an overnight culture is added to each well of the tray. The tops of the trays are then sealed using transparent tape and incubated overnight at 37°C. The trays are examined with the aid of a viewer. The lowest concentration at which no growth is observed is considered to be the minimum inhibitory concentration (MIC). [formula] [formula] [formula] [formula] [formula] [formula] [formula] [formula] [formula] [formula] [formula]

A further assay relates to P.aeruginosa. The following applies: Pseudomonas aeruginosa. How it is done:
as §1, §2

The subject of a further assay is S. pyogenes. The following applies: Streptococcus pyogenes. As for the experimental part: as §1, §2
The next assay relates to S. faecalis. As to conditions: Enterococcus faecalis; S. faecalis C1. As for the experimental part: as §1, §2
In a further assay the test system is S. aureus. The following applies: Staphylococcus aureus. How it is done: as §1, §2

Counter-ions that a name gives are not always drawn.

Turning to `CC1(C)S[C@@H]2[C@H](N=CN3CCC(CC4=NCCCN4)CC3)C(=O)N2[C@H]1C(=O)O` [Compound U, [2S-(2alpha,5alpha,6beta)]-6-[[[4-[(1,4,5,6-tetrahydro-2-pyrimidinyl)methyl]-1-piperidinyl]-methylene]amino]-3,3-dimethyl-7-oxo-4-thia-1-azabicyclo[3.2.0]heptane-2-carboxylic acid hydrochloride], the MIC is 2 µg/mL in the assay on S. pneumoniae (S. pneumoniae strain 6301); 4 µg/mL with S. pneumoniae (S. pneumoniae strain 6302); 4 µg/mL against S. pneumoniae (S. pneumoniae strain SC); 64 µg/mL in the assay on P.aeruginosa (P.aeruginosa strain 503-56); more than 128 µg/mL against P.aeruginosa (P.aeruginosa strain 503-820); 0.5 µg/mL with P.aeruginosa (P.aeruginosa strain 5700). Moreover, the MIC in the assay on P.aeruginosa (P.aeruginosa strain 5712) was more than 128 µg/mL; in the assay with P.aeruginosa (P.aeruginosa strain 6148B) it was 128 µg/mL; in the assay with P.aeruginosa (P.aeruginosa strain 8710), more than 128 µg/mL; in the assay on P.aeruginosa (P.aeruginosa strain 8780), more than 128 µg/mL; in the assay on P.aeruginosa (P.aeruginosa strain B), 9.5 µg/mL; in the assay on P.aeruginosa (P.aeruginosa strain POW 151), more than 128 µg/mL. Moreover, the MIC with P.aeruginosa (P.aeruginosa strain Stone 130) is more than 128 µg/mL; in the assay on S. pyogenes (S. pyogenes strain 4), 4 µg/mL; in the assay with S. pyogenes (S. pyogenes strain 503-782) it was more than 128 µg/mL; against S. faecalis it was 128 µg/mL; against S. aureus (S. aureus strain 1059B), more than 128 µg/mL; against S. aureus (S. aureus strain Giorgio) it was 8 µg/mL. This molecule returned an MIC against S. aureus (S. aureus strain Smith) of 8 µg/mL.

In the case of `CC1(C)S[C@@H]2[C@H](N=CN3CCCC(c4ncc[nH]4)C3)C(=O)N2[C@H]1C(=O)O` (stereo partly drawn) [P, [2S-(2alpha,5alpha,6beta)]-6-[[[3-(1H-imidazol-2-yl)-1-piperidinyl]methylene]amino]-3,3-dimethyl-7-oxo-4-thia-1-azabicyclo[3.2.0]heptane-2-car-boxylic acid hydrochloride], the MIC was 1 µg/mL against S. pneumoniae (S. pneumoniae strain 6301); 1 µg/mL against S. pneumoniae (S. pneumoniae strain 6302); 1 µg/mL with S. pneumoniae (S. pneumoniae strain SC); more than 128 µg/mL against P.aeruginosa (P.aeruginosa strain 503-56); more than 128 µg/mL against P.aeruginosa (P.aeruginosa strain 503-820); 8 µg/mL against P.aeruginosa (P.aeruginosa strain 5700). In addition, the MIC in the assay on P.aeruginosa (P.aeruginosa strain 5712) was more than 128 µg/mL; in the assay with P.aeruginosa (P.aeruginosa strain 6148B) it was more than 128 µg/mL; in the assay with P.aeruginosa (P.aeruginosa strain 8710), more than 128 µg/mL; in the assay with P.aeruginosa (P.aeruginosa strain 8780), more than 128 µg/mL; in the assay with P.aeruginosa (P.aeruginosa strain B), 8 µg/mL; with P.aeruginosa (P.aeruginosa strain POW 151) it was more than 128 µg/mL. Further, the MIC is more than 128 µg/mL against P.aeruginosa (P.aeruginosa strain Stone 130); 0.5 µg/mL against S. pyogenes (S. pyogenes strain 4); 64 µg/mL against S. pyogenes (S. pyogenes strain 503-782); 64 µg/mL in the assay with S. faecalis; 64 µg/mL in the assay on S. aureus (S. aureus strain 1059B); 4 µg/mL in the assay on S. aureus (S. aureus strain Giorgio). Also, it took 2 µg/mL to inhibit growth in the assay with S. aureus (S. aureus strain Smith) (MIC).

For `CC1(C)S[C@@H]2[C@H](N=CN3CCC(Cc4ncc[nH]4)CC3)C(=O)N2[C@H]1C(=O)O` [Q, [2S-(2alpha,5alpha,6beta)]-6-[[[4-(1H-imidazol-2-yl-methyl)-1-piperidinyl]methylene]amino]-3,3-dimethyl-7-oxo-4-thia-1-azabicyclo[3.2.0]heptane-2-carboxylic acid hydrochloride], the MIC with S. pneumoniae (S. pneumoniae strain 6301) is 1 µg/mL; against S. pneumoniae (S. pneumoniae strain 6302) it was 2 µg/mL; against S. pneumoniae (S. pneumoniae strain SC), 2 µg/mL; against P.aeruginosa (P.aeruginosa strain 503-56), 64 µg/mL; in the assay on P.aeruginosa (P.aeruginosa strain 503-820), 128 µg/mL; with P.aeruginosa (P.aeruginosa strain 5700), 0.125 µg/mL. The MIC is more than 128 µg/mL against P.aeruginosa (P.aeruginosa strain 5712); 128 µg/mL in the assay with P.aeruginosa (P.aeruginosa strain 6148B); 128 µg/mL in the assay with P.aeruginosa (P.aeruginosa strain 8710); more than 128 µg/mL against P.aeruginosa (P.aeruginosa strain 8780); 0.25 µg/mL against P.aeruginosa (P.aeruginosa strain B); more than 128 µg/mL in the assay on P.aeruginosa (P.aeruginosa strain POW 151). Besides, the minimal inhibitory concentration (MIC) in the assay with P.aeruginosa (P.aeruginosa strain Stone 130) is more than 128 µg/mL; in the assay with S. pyogenes (S. pyogenes strain 4) it was 1 µg/mL; against S. pyogenes (S. pyogenes strain 503-782), 128 µg/mL; with S. faecalis, 128 µg/mL; with S. aureus (S. aureus strain 1059B), 128 µg/mL; in the assay on S. aureus (S. aureus strain Giorgio), 8 µg/mL. Moreover, 8 µg/mL was the least that counted as inhibitory against S. aureus (S. aureus strain Smith) (MIC).

On to `CC1(C)S[C@@H]2[C@H](N=CN3CCC(CCCn4ccnc4CO)CC3)C(=O)N2[C@H]1C(=O)O` [R, [2S-(2alpha,5alpha,6beta)]-6-[[[4-[3-[2-(hydroxy-methyl)-1H-imidazol-1-yl]propyl-1-piperidinyl]-methylene]amino]-3,3-dimethyl-7-oxo-4-thia-1-azabicyclo[3.2.0]heptane-2-carboxylic acid hydrochloride 1.1 molar hydrate], for which the MIC with S. pneumoniae (S. pneumoniae strain 6301) is 1 µg/mL; against S. pneumoniae (S. pneumoniae strain 6302), 1 µg/mL; in the assay with S. pneumoniae (S. pneumoniae strain SC), 0.5 µg/mL; against P.aeruginosa (P.aeruginosa strain 503-56), more than 128 µg/mL; against P.aeruginosa (P.aeruginosa strain 503-820), 128 µg/mL; with P.aeruginosa (P.aeruginosa strain 5700), more than 128 µg/mL. For the same molecule, the MIC in the assay with P.aeruginosa (P.aeruginosa strain 5712) was more than 128 µg/mL; with P.aeruginosa (P.aeruginosa strain 6148B) it was 128 µg/mL; against P.aeruginosa (P.aeruginosa strain 8710), more than 128 µg/mL; in the assay with P.aeruginosa (P.aeruginosa strain 8780), more than 128 µg/mL; in the assay on P.aeruginosa (P.aeruginosa strain B), 128 µg/mL; in the assay with P.aeruginosa (P.aeruginosa strain POW 151), more than 128 µg/mL. Moreover, the MIC is more than 128 µg/mL with P.aeruginosa (P.aeruginosa strain Stone 130); 0.5 µg/mL with S. pyogenes (S. pyogenes strain 4); 128 µg/mL in the assay with S. pyogenes (S. pyogenes strain 503-782); 128 µg/mL with S. faecalis; 64 µg/mL in the assay with S. aureus (S. aureus strain 1059B); 8 µg/mL in the assay with S. aureus (S. aureus strain Giorgio). The same molecule registered an MIC in the assay with S. aureus (S. aureus strain Smith) of 8 µg/mL.

Take `CN(C)C=Nc1nccn1CCCC1CCN(C=N[C@@H]2C(=O)N3[C@@H]2SC(C)(C)[C@@H]3C(=O)O)CC1` [S, [2S-(2alpha,5alpha,6beta)]-6-[[[4-[3-[2-[[(dimethylamino)methylene]amino]-1H-imidazol-1-yl]propyl]-1-piperidinyl]methylene]amino]-3,3-dimethyl-7-oxo-4-thia-1-azabicyclo[3.2.0]heptane-2-carboxylic acid 1.7 molar hydrochloride 2.6 molar hydrate]: the MIC against S. pneumoniae (S. pneumoniae strain 6301) is 2 µg/mL; with S. pneumoniae (S. pneumoniae strain 6302), 1 µg/mL; against S. pneumoniae (S. pneumoniae strain SC), 0.5 µg/mL; against P.aeruginosa (P.aeruginosa strain 503-56), more than 128 µg/mL; in the assay with P.aeruginosa (P.aeruginosa strain 503-820), more than 128 µg/mL; against P.aeruginosa (P.aeruginosa strain 5700), more than 128 µg/mL. Moreover, the MIC against P.aeruginosa (P.aeruginosa strain 5712), in the assay on P.aeruginosa (P.aeruginosa strain 6148B), against P.aeruginosa (P.aeruginosa strain 8710), against P.aeruginosa (P.aeruginosa strain 8780), against P.aeruginosa (P.aeruginosa strain B) and with P.aeruginosa (P.aeruginosa strain POW 151) was more than 128 µg/mL in each case. The MIC against P.aeruginosa (P.aeruginosa strain Stone 130) is more than 128 µg/mL; in the assay on S. pyogenes (S. pyogenes strain 4), 0.25 µg/mL; in the assay on S. pyogenes (S. pyogenes strain 503-782), 128 µg/mL; in the assay on S. faecalis, 128 µg/mL; in the assay with S. aureus (S. aureus strain 1059B), 64 µg/mL; against S. aureus (S. aureus strain Giorgio) it was 8 µg/mL. Besides, the MIC in the assay on S. aureus (S. aureus strain Smith) is 8 µg/mL.
